Reference: ChEMBL document CHEMBL1201862, “PubChem BioAssay data set” (2004)
The source made the active and inactive calls.

Tests used:
[1] = tested on: Streptococcus sp. 'group A'; assay: growth inhibition of control SK(-) GAS strain, dose response, counter-screen for streptokinase expression inhibitor project, luminescence, kanamycin, BacTiterGlo, confirmation (AID 1900); format: functional, organism-based
Streptococcus = assay: Group A Streptococcus viability loss, dose response, counter-screen for streptokinase expression inhibitor project, luminescence, BacTiterGlo (AID 1915); format: functional, organism-based;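 further: potency for reduction of bacterial viability or growth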
Streptokinase A = target: T1, Streptokinase A (Streptococcus pyogenes serotype M1, UniProt P10520); assay: S. pyogenes streptokinase expression inhibitors, potency, dose response, plasminogen activation absorbance, OD405 (AID 1914); format: functional, Streptococcus pyogenes M1 GAS;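 further: secreted streptokinase activity via plasminogen activation per viability signal from cell pellet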
T1 sequence (P10520 whole entry): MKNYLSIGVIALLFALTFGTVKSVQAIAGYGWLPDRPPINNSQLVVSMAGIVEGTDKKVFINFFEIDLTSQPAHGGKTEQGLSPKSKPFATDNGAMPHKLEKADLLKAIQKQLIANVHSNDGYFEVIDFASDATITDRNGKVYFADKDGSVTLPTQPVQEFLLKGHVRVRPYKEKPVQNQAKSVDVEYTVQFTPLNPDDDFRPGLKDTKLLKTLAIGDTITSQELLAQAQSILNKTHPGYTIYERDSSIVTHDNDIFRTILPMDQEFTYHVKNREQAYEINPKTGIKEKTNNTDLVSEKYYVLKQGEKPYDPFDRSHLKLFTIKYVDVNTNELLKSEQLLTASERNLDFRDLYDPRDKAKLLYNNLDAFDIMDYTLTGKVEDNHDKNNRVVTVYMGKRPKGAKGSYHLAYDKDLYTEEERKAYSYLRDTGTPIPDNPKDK

[2] = cytotoxicity in HEK-293T cells, dose response, cytotoxicity control for BCR NF-kB inhibitor project, luminescence, B-cell screen hits (AID 489021); format: functional, cell-based;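 further: HEK-293T cells carrying an NF-kB luciferase reporter; cells exposed to compound for about 14 hours before viability readout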
[3] = viability loss in Mcl1-dependent HMC-1-8 cells, dose response, selectivity assay for A1 inhibitor project, cell-based, luminescence, dry powder (AID 504415); format: functional; conditions: Homo sapiens
[4] = target: Protein disulfide-isomerase (Homo sapiens, UniProt P07237); assay: PDI inhibitors, insulin aggregation turbidity, dose response, biochemical, absorbance, cherry-picked samples (AID 602350); format: functional
Sequence of Protein disulfide-isomerase (P07237 whole entry): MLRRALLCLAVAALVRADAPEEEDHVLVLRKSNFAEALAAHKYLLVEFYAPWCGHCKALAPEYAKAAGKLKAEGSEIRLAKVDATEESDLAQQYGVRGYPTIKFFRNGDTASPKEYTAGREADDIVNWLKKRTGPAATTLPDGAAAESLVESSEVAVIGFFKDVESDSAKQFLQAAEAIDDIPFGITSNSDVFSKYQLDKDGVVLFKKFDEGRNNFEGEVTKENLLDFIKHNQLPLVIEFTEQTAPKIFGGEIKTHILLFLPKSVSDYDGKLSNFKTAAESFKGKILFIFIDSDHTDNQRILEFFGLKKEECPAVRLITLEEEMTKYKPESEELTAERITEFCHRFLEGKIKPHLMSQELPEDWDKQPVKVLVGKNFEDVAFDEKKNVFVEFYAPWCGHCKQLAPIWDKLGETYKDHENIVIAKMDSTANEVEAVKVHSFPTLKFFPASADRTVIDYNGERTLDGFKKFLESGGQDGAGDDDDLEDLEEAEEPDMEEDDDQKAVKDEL

[5] = target: T2, Endoribonuclease toxin MazF (Escherichia coli K-12, UniProt P0AE70); assay: fluorescent RNA oligo signal without MazF, dose response, counter-screen for MazEF activator project, biochemical, fluorescence, single-stranded RNase substrate (AID 588502); format: functional
T2 sequence (P0AE70 whole entry): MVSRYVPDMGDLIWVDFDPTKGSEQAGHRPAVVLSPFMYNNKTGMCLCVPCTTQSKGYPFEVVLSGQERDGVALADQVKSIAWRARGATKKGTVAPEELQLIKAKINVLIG

Galanin receptor type 2 = Galanin receptor type 2 (Homo sapiens, UniProt O43603); assay: Dose Response cell-based high-throughput screening assay to identify antagonists of galanin receptor 2 (GALR2). [Related pubchem assays: 828, 866 ]; format: functional
Sequence of Galanin receptor type 2 (O43603 whole entry): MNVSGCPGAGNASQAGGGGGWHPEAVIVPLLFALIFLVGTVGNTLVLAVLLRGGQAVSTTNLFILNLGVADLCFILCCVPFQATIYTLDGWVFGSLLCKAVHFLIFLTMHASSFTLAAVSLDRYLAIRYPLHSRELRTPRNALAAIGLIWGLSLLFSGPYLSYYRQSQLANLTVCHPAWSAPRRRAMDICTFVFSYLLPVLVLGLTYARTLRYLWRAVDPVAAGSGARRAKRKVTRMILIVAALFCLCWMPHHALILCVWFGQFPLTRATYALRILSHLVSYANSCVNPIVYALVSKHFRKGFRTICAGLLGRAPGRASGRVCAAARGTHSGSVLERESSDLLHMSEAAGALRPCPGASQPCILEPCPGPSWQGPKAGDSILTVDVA

[6] = target: T2, Endoribonuclease toxin MazF; assay: MazF toxin RNase activators, dose response, biochemical, fluorescence, single-stranded RNA substrate, uHTS hits (AID 588481); format: functional
DNA topoisomerase = DNA topoisomerase (Yersinia pestis, UniProt A0A2S9PM60); assay: Y. pestis Topo-I inhibitors, cleavage product readout, dose response, biochemical, cherry-pick (AID 588525)
Sequence of DNA topoisomerase (A0A2S9PM60 whole entry): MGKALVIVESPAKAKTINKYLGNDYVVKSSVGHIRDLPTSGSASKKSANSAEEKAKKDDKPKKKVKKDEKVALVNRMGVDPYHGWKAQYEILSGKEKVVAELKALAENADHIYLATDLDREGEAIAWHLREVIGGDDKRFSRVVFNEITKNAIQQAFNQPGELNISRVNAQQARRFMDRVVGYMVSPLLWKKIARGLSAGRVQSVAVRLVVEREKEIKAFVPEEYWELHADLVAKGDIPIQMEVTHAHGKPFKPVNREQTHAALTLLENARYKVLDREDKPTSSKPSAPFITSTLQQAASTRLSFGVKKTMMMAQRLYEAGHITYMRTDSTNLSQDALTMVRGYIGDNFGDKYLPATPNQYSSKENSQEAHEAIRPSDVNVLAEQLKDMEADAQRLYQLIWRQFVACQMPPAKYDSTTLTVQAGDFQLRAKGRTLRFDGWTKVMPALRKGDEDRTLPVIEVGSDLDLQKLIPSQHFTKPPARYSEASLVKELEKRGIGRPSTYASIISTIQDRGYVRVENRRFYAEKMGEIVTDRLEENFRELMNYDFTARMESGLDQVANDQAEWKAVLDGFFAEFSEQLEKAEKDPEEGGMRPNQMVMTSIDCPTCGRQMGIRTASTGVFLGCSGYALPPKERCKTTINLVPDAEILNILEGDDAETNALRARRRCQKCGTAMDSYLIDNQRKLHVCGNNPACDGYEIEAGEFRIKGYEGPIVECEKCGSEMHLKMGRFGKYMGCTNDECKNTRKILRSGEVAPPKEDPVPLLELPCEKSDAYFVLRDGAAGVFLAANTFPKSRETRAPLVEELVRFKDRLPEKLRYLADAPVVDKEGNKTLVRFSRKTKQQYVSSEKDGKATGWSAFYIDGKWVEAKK

[7] = target: Beta-2 adrenergic receptor (Homo sapiens, UniProt P07550); assay: beta2AR agonists driving receptor internalization, dose response, cell-based, FAP fluorogen, flow cytometry, cherry pick 1 (AID 588763); format: functional
Sequence of Beta-2 adrenergic receptor (P07550 whole entry): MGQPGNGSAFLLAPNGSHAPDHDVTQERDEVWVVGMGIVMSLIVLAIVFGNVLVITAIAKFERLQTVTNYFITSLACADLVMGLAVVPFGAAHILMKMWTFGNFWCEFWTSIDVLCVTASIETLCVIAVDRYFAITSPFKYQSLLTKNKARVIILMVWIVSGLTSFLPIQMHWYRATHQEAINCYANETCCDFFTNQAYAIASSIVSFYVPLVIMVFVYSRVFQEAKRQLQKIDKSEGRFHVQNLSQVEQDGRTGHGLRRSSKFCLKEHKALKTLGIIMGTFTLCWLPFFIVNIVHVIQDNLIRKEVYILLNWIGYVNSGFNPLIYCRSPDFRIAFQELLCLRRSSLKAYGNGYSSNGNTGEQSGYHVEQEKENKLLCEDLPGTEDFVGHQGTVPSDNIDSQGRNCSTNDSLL

HeLa = assay: HeLa cell cytotoxicity, dose response, cytotoxicity control, 48 h, plate reader, cherry-picks (AID 504942); format: functional, cell-based; conditions: Homo sapiens
[8] = target: T3, Acyl-homoserine lactone acylase PvdQ (Pseudomonas aeruginosa (strain LESB58), UniProt Q9I194); assay: P. aeruginosa PvdQ acylase inhibitors, dose response, biochemical, fluorescence, plate reader and imaging, cherry-picks (AID 493231)
T3 sequence (Q9I194 whole entry): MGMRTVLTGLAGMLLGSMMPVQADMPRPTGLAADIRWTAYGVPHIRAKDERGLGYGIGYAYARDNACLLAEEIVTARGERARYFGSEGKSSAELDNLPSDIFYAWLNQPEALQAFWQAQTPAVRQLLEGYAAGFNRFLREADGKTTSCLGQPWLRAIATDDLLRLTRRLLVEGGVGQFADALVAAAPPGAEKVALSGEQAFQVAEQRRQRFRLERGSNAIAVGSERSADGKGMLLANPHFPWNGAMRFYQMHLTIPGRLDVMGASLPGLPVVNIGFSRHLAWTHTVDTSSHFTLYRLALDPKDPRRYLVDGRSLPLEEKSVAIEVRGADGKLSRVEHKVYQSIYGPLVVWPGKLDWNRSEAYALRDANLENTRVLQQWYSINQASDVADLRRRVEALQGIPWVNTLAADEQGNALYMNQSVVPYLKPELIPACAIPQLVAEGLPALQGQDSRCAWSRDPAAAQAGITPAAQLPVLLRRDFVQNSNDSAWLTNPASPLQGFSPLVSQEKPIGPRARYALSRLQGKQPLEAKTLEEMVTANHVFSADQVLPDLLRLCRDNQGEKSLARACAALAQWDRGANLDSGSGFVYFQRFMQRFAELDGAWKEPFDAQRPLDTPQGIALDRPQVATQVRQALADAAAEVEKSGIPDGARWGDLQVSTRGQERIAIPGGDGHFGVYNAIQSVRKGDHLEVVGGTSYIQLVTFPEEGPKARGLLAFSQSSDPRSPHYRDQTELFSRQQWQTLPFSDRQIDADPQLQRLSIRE

Hexokinase HKDC1 = target: T4, Hexokinase HKDC1 (Homo sapiens, UniProt Q2TB90); assay: SAR analysis of small molecule inhibitors of hexokinase domain containing I (HKDC1). [Related pubchem assays (depositor defined):AID493160, AID493190]; format: functional
T4 sequence (Q2TB90 whole entry): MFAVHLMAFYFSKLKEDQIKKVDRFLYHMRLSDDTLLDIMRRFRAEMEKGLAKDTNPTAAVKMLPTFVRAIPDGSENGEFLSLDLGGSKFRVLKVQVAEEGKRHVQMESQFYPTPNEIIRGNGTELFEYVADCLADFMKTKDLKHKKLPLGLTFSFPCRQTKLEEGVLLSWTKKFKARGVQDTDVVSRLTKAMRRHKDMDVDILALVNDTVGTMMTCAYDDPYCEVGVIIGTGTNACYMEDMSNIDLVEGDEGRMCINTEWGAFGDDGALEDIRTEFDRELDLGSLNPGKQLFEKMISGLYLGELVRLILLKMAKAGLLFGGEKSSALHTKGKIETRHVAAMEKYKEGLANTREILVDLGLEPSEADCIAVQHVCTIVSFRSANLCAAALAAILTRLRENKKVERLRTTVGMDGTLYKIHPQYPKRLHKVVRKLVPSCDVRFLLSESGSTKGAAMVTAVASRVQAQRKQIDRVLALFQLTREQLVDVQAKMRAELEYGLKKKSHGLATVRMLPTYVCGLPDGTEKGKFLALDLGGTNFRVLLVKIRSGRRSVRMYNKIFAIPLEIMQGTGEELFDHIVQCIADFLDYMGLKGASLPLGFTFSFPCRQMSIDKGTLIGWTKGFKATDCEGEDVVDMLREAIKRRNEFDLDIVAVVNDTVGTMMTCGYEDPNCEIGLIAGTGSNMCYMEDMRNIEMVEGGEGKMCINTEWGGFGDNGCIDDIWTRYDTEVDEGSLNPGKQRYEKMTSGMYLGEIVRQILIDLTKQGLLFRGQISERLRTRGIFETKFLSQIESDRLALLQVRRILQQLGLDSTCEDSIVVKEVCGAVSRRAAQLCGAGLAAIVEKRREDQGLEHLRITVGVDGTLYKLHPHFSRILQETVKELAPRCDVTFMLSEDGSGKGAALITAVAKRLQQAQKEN

Hexokinase-1 = target: T5, Hexokinase-1 (Homo sapiens, UniProt P19367); assay: SAR analysis of small molecule inhibitors of hexokinase domain containing I (HKDC1) in the hexokinase 1 selectivity assay. [Related pubchem assays (depositor defined):AID493160, AID493190]; format: functional
T5 sequence (P19367 whole entry): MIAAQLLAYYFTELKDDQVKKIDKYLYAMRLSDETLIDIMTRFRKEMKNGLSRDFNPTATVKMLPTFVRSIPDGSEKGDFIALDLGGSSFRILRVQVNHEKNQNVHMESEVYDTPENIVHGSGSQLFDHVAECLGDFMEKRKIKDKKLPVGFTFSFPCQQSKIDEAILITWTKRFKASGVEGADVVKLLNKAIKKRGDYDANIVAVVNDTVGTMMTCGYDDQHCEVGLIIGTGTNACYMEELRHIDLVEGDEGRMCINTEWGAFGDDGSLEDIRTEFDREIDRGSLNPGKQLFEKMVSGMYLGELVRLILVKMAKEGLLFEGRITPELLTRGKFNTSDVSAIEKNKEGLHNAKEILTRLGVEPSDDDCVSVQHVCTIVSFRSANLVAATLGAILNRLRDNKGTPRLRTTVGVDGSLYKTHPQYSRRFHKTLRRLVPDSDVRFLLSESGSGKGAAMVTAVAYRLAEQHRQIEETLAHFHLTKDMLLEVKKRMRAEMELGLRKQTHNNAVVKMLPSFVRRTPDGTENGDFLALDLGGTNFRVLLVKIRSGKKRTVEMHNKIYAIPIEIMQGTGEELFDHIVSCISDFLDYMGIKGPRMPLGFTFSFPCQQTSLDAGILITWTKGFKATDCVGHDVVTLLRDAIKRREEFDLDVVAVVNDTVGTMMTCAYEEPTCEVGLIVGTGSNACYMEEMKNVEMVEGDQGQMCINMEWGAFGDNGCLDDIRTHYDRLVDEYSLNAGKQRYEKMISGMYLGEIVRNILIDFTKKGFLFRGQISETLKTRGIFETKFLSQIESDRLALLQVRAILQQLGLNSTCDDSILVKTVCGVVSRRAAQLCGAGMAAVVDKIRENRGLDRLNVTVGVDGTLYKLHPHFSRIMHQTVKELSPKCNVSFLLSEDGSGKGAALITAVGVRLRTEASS

HEK293 [9] = assay: SAR Analysis of small molecule inhibitors of T-cell specific antigen receptor-induced NF-kB activation in a HEK-293T cell line using a luminescence assay - Set 2. [Related pubchem assays (depositor defined):AID435003, AID435012, AID489026]; format: functional, cell-based; conditions: Homo sapiens
Jurkat = assay: SAR Analysis of small molecule inhibitors of T-cell specific antigen receptor-induced NF-kB activation in a Jurkat cell line using a luminescence assay - Set 2. [Related pubchem assays (depositor defined):AID435003, AID435012, AID465]; format: functional, cell-based; conditions: Homo sapiens
HEK293 [10] = assay: cytotoxicity in HEK293T NF-kB-Luc cells, SAR follow-up, cytotoxicity control for NF-kB activator project, cell-based, resazurin fluorescence (AID 493251); format: functional; conditions: Homo sapiens
[11] = blockers of SFLLRN-triggered platelet ATP secretion – cell-based, human platelets, luminescence, dry powder, dose response (AID 493100); format: functional
[12] = Luminescence Cell-Based Dose Response Follow up to Identify Inhibitors of Platelet Dense Granule Release. [Related pubchem assays (depositor defined):AID1663, AID1678, AID2398]; format: functional

**Q.** For `O=C(Oc1cccc(/C=N/Nc2nc(Nc3ccccc3)nc(N3CCOCC3)n2)c1)c1ccco1`, which EC50 [1] is on record?
**A.** Its EC50 is 9.28 µM (active).

**Q.** What about the EC50 (Streptococcus) of the same molecule?
**A.** The EC50 was 16 µM (active).

**Q.** And the EC50 (Streptokinase A)?
**A.** The EC50 was > 150 µM (not active).

**Q.** And the IC50 [2]?
**A.** Its IC50 is > 80 µM (inactive).

**Q.** What about the AC50 [3] of the same molecule?
**A.** The AC50 was 56.1 µM (active).

**Q.** For `C[C@@H]1CN([C@H](C)CO)C(=O)c2cccc(NS(C)(=O)=O)c2O[C@H]1CN(C)Cc1ccc(Oc2ccccc2)cc1`, which AC50 [4] is on record?
**A.** The AC50 was 18.8 µM (active).

**Q.** Which EC50 [5] does the source give for `O=C(Cc1cccs1)Nc1cccc(-c2nc3cc4ccccc4cc3[nH]2)c1` here?
**A.** The EC50 was > 99 µM (inactive).

**Q.** And the EC50 [1]?
**A.** Its EC50 is 4.51 µM (active).

**Q.** And the EC50 (Streptococcus)?
**A.** Its EC50 is 14.9 µM (active).

**Q.** What about the IC50 (Galanin receptor type 2) of the same molecule?
**A.** The IC50 was > 42 µM (not active).

**Q.** And the EC50 (Streptokinase A)?
**A.** Its EC50 is > 150 µM (not active).

**Q.** What about the EC50 [6] of the same molecule?
**A.** The EC50 was > 99 µM (inactive).

**Q.** Which AC50 (DNA topoisomerase) does the source give for `O=C(C[C@H]1C/C=C\CC[C@H](Cc2ccc(F)cc2)C(=O)O[C@@H](c2ccccc2)CNC1=O)N[C@@H](CO)Cc1ccccc1` here?
**A.** The AC50 was > 38 µM (inactive).

**Q.** Which EC50 [7] does the source give for `CCc1ccc(CN2CCC(Oc3ccc(C(=O)N4CCCC4)cc3)CC2)cc1` here?
**A.** The EC50 was 0.936 µM (active).

**Q.** Which AC50 (HeLa) does the source give for `Cc1cc(NC(=O)Nc2ccccc2[N+](=O)[O-])no1` here?
**A.** The AC50 was > 380 µM (inactive).

**Q.** What about the AC50 [8] of the same molecule?
**A.** The AC50 was 2.02 µM (active).

**Q.** What does the source list for `O=c1c2ccccc2nc(/C=C/c2cccc(O)c2)n1Cc1ccccc1`?
**A.** IC50 (Hexokinase HKDC1): > 80 µM (inactive); IC50 (Hexokinase-1): > 80 µM (inactive)

**Q.** Which IC50 (HEK293 [9]) does the source give for `CCCCNC(=O)CCc1nc(-c2ccc(C(C)(C)C)cc2)no1` here?
**A.** The IC50 was 14.5 µM (active).

**Q.** And the IC50 (Jurkat)?
**A.** Its IC50 is > 79 µM (inactive).

**Q.** What about the IC50 (HEK293 [10]) of the same molecule?
**A.** The IC50 was > 80 µM (inactive).

**Q.** Which AC50 [11] does the source give for `CC(=O)Nc1ccc(/C(C)=N/NC(=O)C2CCCC2)cc1` here?
**A.** Its AC50 is 126 µM (active).

**Q.** And the EC50 [12]?
**A.** Its EC50 is 11.3 µM (active).
